The test system of test [1] is myeloma protein CAL20 TEPC1035. Briefly: Quantitative precipitin inhibition assay, CAL20 TEPC1035 with dextran B1498S. The format is binding, murine. The conditions noted are these: for Relative potency: Table II, maltose = 1.0.
Test [2] relates to myeloma protein CAL20 TEPC1035. Briefly: Quantitative precipitin assay with CAL20 TEPC1035. The format is binding, murine. Particulars: Table I; 6.5 µg antibody N, total vol 400 µl.
Test [3] concerns the target T1, myeloma protein J558 (Mus musculus, UniProt P01724+P01757). Description: Quantitative precipitin assay with J558. The conditions noted are these: Table I; total vol 400 µl. It is filed as binding, BALB/c mouse.
Test [4] deals with serum 895 (anti-panosyl-α(1→4)DGlc). Description: Quantitative precipitin assay with antiserum 895. It is filed as binding, Rabbit. The conditions noted are these: 80 µl undiluted serum, total vol 400 µl.
For test [5], the target named is T2, myeloma protein MOPC104E (Mus musculus, UniProt P01724+P01756). Briefly: Quantitative precipitin inhibition assay, MOPC104E. The conditions noted are these: 25 µg dextran B1498S. The format is binding, BALB/c mouse.
T2 sequence (P01756 whole entry): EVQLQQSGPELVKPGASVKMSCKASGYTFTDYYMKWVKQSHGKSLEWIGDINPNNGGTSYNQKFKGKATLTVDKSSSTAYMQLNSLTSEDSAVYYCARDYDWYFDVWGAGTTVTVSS
T2 sequence (P01724 20-129): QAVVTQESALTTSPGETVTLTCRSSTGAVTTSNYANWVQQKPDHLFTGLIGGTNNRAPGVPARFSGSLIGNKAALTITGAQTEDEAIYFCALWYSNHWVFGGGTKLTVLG
Test [6] deals with T1, myeloma protein J558. Briefly: Quantitative precipitin inhibition assay, J558. The format is binding, BALB/c mouse. Particulars: at 0.99 µmol; 15 µg dextran B1498S.
The test system of a further test is myeloma protein UPC102. Briefly: Quantitative precipitin inhibition assay, UPC102. Particulars: at 0.52 µmol; 15 µg dextran B1355S. It is filed as binding, BALB/c mouse.
The target of test [7] is T2, myeloma protein MOPC104E. The conditions noted are these: cited from earlier work.
Setting [8] is: inhibition of CAL20 TEPC1035-dextran B1498S precipitation.

Several values for one entry are separate records, joined by “and”; a condition that tells them apart may be missing. Identical values can stand only once.

T1 sequence (P01757 whole entry): as the sequence (P01756 whole entry) above, with Y100R, D101Y counted along it
T1 sequence (P01724 20-129): as the sequence (P01724 20-129) above

The molecule `OC[C@H]1O[C@H](OC[C@H]2O[C@H](OC[C@H]3O[C@H](OC[C@H]4O[C@H](OC[C@H]5O[C@H](OC[C@H]6O[C@H](OC[C@H]7OC(O)[C@H](O)[C@@H](O)[C@@H]7O)[C@H](O)[C@@H](O)[C@@H]6O)[C@H](O)[C@@H](O)[C@@H]5O)[C@H](O)[C@@H](O)[C@@H]4O)[C@H](O)[C@@H](O)[C@@H]3O)[C@H](O)[C@@H](O)[C@@H]2O)[C@H](O)[C@@H](O)[C@@H]1O` (stereo partly shown) [Isomaltoheptaose, isomaltoheptaose] had an inhibition of precipitation in test [1] (at 0.4 µmol) of 35%. Consider Glycogen, for which the “Precipitating power with CAL20 TEPC1035” value in test [2] is “-”. Also, the “Precipitating power with J558” value at myeloma protein J558 [3] was “-”. In addition, in test [4], the “Precipitation with serum 895” value was “precipitated poorly”. For the molecule Pullulan, the “Precipitating power with CAL20 TEPC1035” value in test [2] was “-”. Also, the “Precipitating power with J558” value at myeloma protein J558 [3] is on record as “-”. For the same molecule, in test [4], the “Precipitation with serum 895” value is “precipitated poorly”. For the molecule `OC[C@H]1O[C@H](OC[C@H]2O[C@H](OC[C@H]3O[C@H](OC[C@H]4O[C@H](OC[C@H]5OC(O)[C@H](O)[C@@H](O)[C@@H]5O)[C@H](O)[C@@H](O)[C@@H]4O)[C@H](O)[C@@H](O)[C@@H]3O[C@H]3O[C@H](CO)[C@@H](O)[C@H](O)[C@H]3O)[C@H](O)[C@@H](O)[C@@H]2O)[C@H](O)[C@@H](O)[C@@H]1O` (stereo partly shown) [II/3, 43-a-v-glucosylisomaltopen taose], in test [1], the Relative potency was found to be 0.8. Same read-out and setting: in the case of `OC[C@H]1O[C@H](O[C@@H]2[C@@H](O)[C@@H](O[C@H]3[C@H](O)[C@@H](CO)OC(O)[C@@H]3O)O[C@H](CO)[C@H]2O)[C@H](O)[C@@H](O)[C@@H]1O` (stereo partly shown) [Nigerotriose, nigerotriose] it was 0.29; in that of nigerohexa-heptaose, 0.33; in that of `O=C[C@H](O)[C@@H](O)[C@H](O[C@@H]1O[C@H](CO)[C@@H](O)[C@H](O)[C@H]1O)[C@H](O)CO` [Cellobiose, DGlcβ(1→4)DGlc], 0.24. In test [1], `OC[C@H]1O[C@H](O[C@H]2[C@H](O)[C@@H](O)[C@@H](OC[C@H]3O[C@H](O[C@H]4[C@H](O)[C@@H](O)[C@@H](O[C@H]5[C@H](O)[C@@H](O)[C@@H](OC[C@H]6OC(O)[C@H](O)[C@@H](O)[C@@H]6O)O[C@@H]5CO)O[C@@H]4CO)[C@H](O)[C@@H](O)[C@@H]3O)O[C@@H]2CO)[C@H](O)[C@@H](O)[C@@H]1O` (stereo partly shown) [Isopanosylα(1→4)isopanose, DGlcα(1→4)DGlcα(1→6)DGlcα(1→4)DGlcα(1→4)DGlcα(1→6)DGlc] registered a Relative potency of 1.0. Moreover, the “times more potent than isopanose” value in test [1] (setting [8]) is reported as 2.85 times. In turn, `OC[C@H]1O[C@H](O[C@@H]2[C@@H](O)[C@@H](OC[C@H]3OC(O)[C@H](O)[C@@H](O)[C@@H]3O)O[C@H](CO)[C@H]2O)[C@H](O)[C@@H](O)[C@@H]1O` (stereo partly shown) [DGlcα(1→3)DGlcα(1→6)DGlc] gave an inhibition of precipitation in test [1] (at 0.16 µmol) of 40%. Molecule `OC[C@H]1O[C@H](OC[C@H]2O[C@H](O[C@H]3[C@H](O)[C@@H](CO)OC(O)[C@@H]3O)[C@H](O)[C@@H](O)[C@@H]2O)[C@H](O)[C@@H](O)[C@@H]1O` (stereo partly shown) [DGlcα(1→6)DGlcα(1→3)DGlc] had a Relative potency in test [1] of 1.6. Still for that read-out and setting: the same measure for Gentiobiose: 0.12. In the case of `OC[C@H]1OC(O)[C@H](O)[C@@H](O)[C@@H]1O` (stereo partly shown) [Glucose], the inhibition of precipitation in test [1] (at 0.2 µmol) and in test [1] (at 0.92 µmol (Table II)) was 22% throughout. In test [1], `CC(=O)OC[C@@H](O)[C@@H](O)[C@H](O)[C@@H](O)C=O` [6-O-acetyl-glucose, 6-O-acetyl-glucose] gave a Relative potency of 0.14. Turning to `OC[C@H]1O[C@H](OC[C@H]2OC(O)[C@H](O)[C@@H](O)[C@@H]2O)[C@H](O)[C@@H](O)[C@@H]1O` (stereo partly shown) [Isomaltose, isomaltose], in test [1], the Relative potency is 0.19. In test [1] (setting [8]), the “activity relative to methyl α-D-glucoside” value is “one-half”.

As to maltopentaose, the Relative potency in test [1] is given as 1.41. `OC[C@H]1O[C@H](O[C@@H]2[C@@H](O)[C@@H](O[C@@H]3[C@@H](O)[C@@H](O[C@H]4[C@H](O)[C@@H](CO)OC(O)[C@@H]4O)O[C@H](CO)[C@H]3O)O[C@H](CO)[C@H]2O)[C@H](O)[C@@H](O)[C@@H]1O` (stereo partly shown) [Nigerotetraose, nigerotetraose] came in with a Relative potency in test [1] of 0.29. In addition, the “inhibition of precipitation of MOPC104E” value on myeloma protein MOPC104E [5] (at 0.82 µmol) was found to be 75%. `OC[C@H]1O[C@H](O[C@H]2[C@H](O)[C@@H](O)[C@@H](O[C@H]3[C@H](O)[C@@H](O)[C@@H](O[C@H]4[C@H](O)[C@@H](O)C(O)O[C@@H]4CO)O[C@@H]3CO)O[C@@H]2CO)[C@H](O)[C@@H](O)[C@@H]1O` (stereo partly shown) [Maltotetraose, maltotetraose] gave a Relative potency in test [1] of 1.0. In the case of `OC[C@H]1O[C@H](O[C@H]2[C@@H](OC[C@H]3OC(O)[C@H](O)[C@@H](O)[C@@H]3O)O[C@H](CO)[C@@H](O)[C@@H]2O)[C@H](O)[C@@H](O)[C@@H]1O` (stereo partly shown) [DGlcα(1→2)DGlcα(1→6)DGlc], the inhibition of precipitation in test [1] (at 0.36 µmol) is listed as 15%. Molecule `OC[C@H]1O[C@H](O[C@H]2[C@H](O)[C@@H](O)C(O)O[C@@H]2CO)[C@H](O)[C@@H](O)[C@@H]1O` (mixture of isomers) [Maltose, maltose] showed a Relative potency in test [1] of 1.0. The “activity relative to methyl α-D-glucoside” value in test [1] (setting [8]) is listed as “three times”.

On to `OC[C@H]1O[C@H](O[C@H]2[C@H](O)[C@@H](CO)OC(O)[C@@H]2O)[C@H](O)[C@@H](O)[C@@H]1O` (stereo partly shown) [Nigerose, nigerose], for which the Relative potency in test [1] is 0.35. Moreover, in test [1] (setting [8]), the “activity relative to methyl α-D-glucoside” value is “equally”. Also, the “inhibition of precipitation of MOPC104E” value against myeloma protein MOPC104E [5] (at 0.9 µmol) was 25%.

In test [1], `OC[C@H]1O[C@H](O[C@H]2[C@H](O)[C@@H](O)[C@@H](OC[C@H]3OC(O)[C@H](O)[C@@H](O)[C@@H]3O)O[C@@H]2CO)[C@H](O)[C@@H](O)[C@@H]1O` (stereo partly shown) [Isopanose, DGlcα(1→4)DGlcα(1→6)DGlc] had a Relative potency of 0.35. `OC[C@H]1O[C@H](O[C@@H]2[C@@H](O)[C@@H](O[C@@H]3[C@@H](O)[C@@H](O[C@@H]4[C@@H](O)[C@@H](O[C@H]5[C@H](O)[C@@H](CO)OC(O)[C@@H]5O)O[C@H](CO)[C@H]4O)O[C@H](CO)[C@H]3O)O[C@H](CO)[C@H]2O)[C@H](O)[C@@H](O)[C@@H]1O` (stereo partly shown) [Nigeropentaose, nigeropentaose] registered a Relative potency in test [1] of 0.29. Molecule `OC[C@H]1O[C@H](O[C@H]2C(O)O[C@H](CO)[C@@H](O)[C@@H]2O)[C@H](O)[C@@H](O)[C@@H]1O` (stereo partly shown) [Kojibiose, DGlcα(1→2)DGlc] registered an inhibition of precipitation in test [1] (at 0.98 µmol) of 20%. In test [1] (at 0.41 µmol), `OC[C@H]1O[C@H](OC[C@H]2O[C@H](OC[C@H]3O[C@H](OC[C@H]4O[C@H](OC[C@H]5O[C@H](OC[C@H]6OC(O)[C@H](O)[C@@H](O)[C@@H]6O)[C@H](O)[C@@H](O)[C@@H]5O)[C@H](O)[C@@H](O)[C@@H]4O)[C@H](O)[C@@H](O)[C@@H]3O)[C@H](O)[C@@H](O)[C@@H]2O)[C@H](O)[C@@H](O)[C@@H]1O` (stereo partly shown) [Isomaltohexaose, isomaltohexaose] had an inhibition of precipitation of 20%.

34-a-u-glucosylisomaltohexaose [I/5] showed an inhibition of precipitation in test [1] (at 0.15 µmol) of 47%. In the case of maltoheptaose, in test [1], the Relative potency turned out to be 2.4. As for `OC[C@H]1O[C@H](O[C@H]2O[C@H](CO)[C@@H](O)[C@H](O)[C@H]2O)[C@H](O)[C@@H](O)[C@@H]1O` [Trehalose, DGlcα(1→1)DGlc], the inhibition of precipitation entry in test [1] (at 1.1 µmol) is given as “No inhibition”.

Molecule maltohexaose had a Relative potency in test [1] of 2.4. `OC[C@H]1O[C@H](OC[C@H]2O[C@H](O[C@H]3[C@H](O)[C@@H](O)C(O)O[C@@H]3CO)[C@H](O)[C@@H](O)[C@@H]2O)[C@H](O)[C@@H](O)[C@@H]1O` (stereo partly shown) [Panose] yielded a Relative potency in test [1] of 8.0. Besides, in test [1] (setting [8]), the “times more active than kojibiose” value is recorded as over 42 times; the “times more potent than the tetrasaccharide DGlcα(1→6)DGlcα(1→4)DGlcα(1→4)DGlc” value was 3.3 times and 2.5 times. In addition, on myeloma protein J558 [6], the “inhibition of precipitation of J558” value is on record as 15%. The “inhibition of precipitation of UPC102” value in the test with myeloma protein UPC102 amounted to 15%. On myeloma protein MOPC104E [5] (up to 0.99 µmol), the “inhibition of precipitation of MOPC104E” value is recorded as “no inhibition”. Also, the “relative potency at 50% inhibition relative to nigerose as 1.0 on a molar basis” value on myeloma protein MOPC104E [7] was 0.105.

Consider maltotriose, for which the Relative potency in test [1] is on record as 1.0. Turning to `OC[C@H]1O[C@H](OC[C@H]2O[C@H](OC[C@H]3O[C@H](OC[C@H]4O[C@H](OC[C@H]5OC(O)[C@H](O)[C@@H](O)[C@@H]5O)[C@H](O)[C@@H](O)[C@@H]4O)[C@H](O)[C@@H](O)[C@@H]3O)[C@H](O)[C@@H](O)[C@@H]2O)[C@H](O)[C@@H](O)[C@@H]1O` (stereo partly shown) [Isomaltopentaose, isomaltopentaose], the inhibition of precipitation in test [1] (at 0.5 µmol) and in test [1] (at 0.59 µmol (Table II)) was 44% in each case. On to `OC[C@H]1O[C@H](OC[C@H]2O[C@H](OC[C@H]3OC(O)[C@H](O)[C@@H](O)[C@@H]3O)[C@H](O)[C@@H](O)[C@@H]2O)[C@H](O)[C@@H](O)[C@@H]1O` (stereo partly shown) [Isomaltotriose, isomaltotriose], for which the Relative potency in test [1] is given as 0.20. The molecule `OC[C@H]1O[C@H](OC[C@H]2O[C@H](O[C@H]3[C@H](O)[C@@H](O)[C@@H](O[C@H]4[C@H](O)[C@@H](O)C(O)O[C@@H]4CO)O[C@@H]3CO)[C@H](O)[C@@H](O)[C@@H]2O)[C@H](O)[C@@H](O)[C@@H]1O` (stereo partly shown) [DGlcα(1→6)DGlcα(1→4)DGlcα(1→4)DGlc] gave a Relative potency in test [1] of 2.4. In addition, the “times more potent than the trisaccharide DGlcα(1→6)DGlcα(1→3)DGlc” value in test [1] (setting [8]) worked out at 1.5 times.

(Values after paper PMC2186054 (The Journal of Experimental Medicine, 1981).)
